Target: PERK recombinant enzyme (cytoplasmic domain corresponding to residues 540-1115) (Homo sapiens (Human), UniProt Q9NZJ5)
Assay: PERK enzyme assay, Method 1: ADP-Glo Kinase Assay (quantification of ADP formed)
Format: biochemical
Conditions: 52 microM ATP, 8 nM PERK, 300 microM eIF2alpha peptide substrate, 60 minutes at room temperature
Description: The biochemical activity of compounds was determined by incubation with PERK recombinant enzyme (cytoplasmic domain corresponding to residues 540-1115) and elF2alpha peptide substrate (Aminoacid sequence: LLSELSRRRIRSINK—SEQ ID Nr: 1; purchased from American Peptide Company, product #341923). This was followed by:
Method 1: Quantification of the ADP Tormed from the Kinase Reaction by ADP-Glo™ Kinase Assay (Promega Cat. 9102). Utra Pure ATP was Included into ADP-Glo™ Kinase Assay kit.
Compounds were 3-fold serially diluted in order to obtain from 3.333 to 0.000169 microM final concentration, then incubated for 60 minutes at room temperature in the presence of ATP, substrate and enzyme in a final volume of 15 microL of kinase buffer in 384-well plates (Perkin Elmer cat. #6007290).
The final concentration of the different reagents is 52 microM ATP, 8 nM PERK, 300 microM substrate, 50 mM Hepes pH 7.5, 3 mM MgCl2, 1 mM DTT, 3 microM Na3VO4, 0.2 mg/ml BSA, 1% DMSO.
After 60 minutes, an equal volume (15 microL) of ADP-Glo™ Reagent was added to each well to terminate the kinase reaction and deplete the remaining ATP. After 40 minutes, 30 microL of Kinase Detection Reagent is added, which simultaneously converts ADP to ATP and allows the newly synthesized ATP to be measured using a coupled luciferase/luciferin reaction. After further 40 minutes luminescence was read by ViewLux Instrument (Perkin Elmer). The data are analyzed by GraphPad Prism software which provides sigmoidal fittings of the curves for IC50 determination using a 4 parameter logistic equation: y=bottom+(top−bottom)/(1+10^((log IC50−x)*slope))
where x is the logarithm of the inhibitor concentration, y is the response; y starts at bottom and goes to top with a sigmoid shape.

Chain of PERK recombinant enzyme (cytoplasmic domain corresponding to residues 540-1115) (Q9NZJ5 540-1115): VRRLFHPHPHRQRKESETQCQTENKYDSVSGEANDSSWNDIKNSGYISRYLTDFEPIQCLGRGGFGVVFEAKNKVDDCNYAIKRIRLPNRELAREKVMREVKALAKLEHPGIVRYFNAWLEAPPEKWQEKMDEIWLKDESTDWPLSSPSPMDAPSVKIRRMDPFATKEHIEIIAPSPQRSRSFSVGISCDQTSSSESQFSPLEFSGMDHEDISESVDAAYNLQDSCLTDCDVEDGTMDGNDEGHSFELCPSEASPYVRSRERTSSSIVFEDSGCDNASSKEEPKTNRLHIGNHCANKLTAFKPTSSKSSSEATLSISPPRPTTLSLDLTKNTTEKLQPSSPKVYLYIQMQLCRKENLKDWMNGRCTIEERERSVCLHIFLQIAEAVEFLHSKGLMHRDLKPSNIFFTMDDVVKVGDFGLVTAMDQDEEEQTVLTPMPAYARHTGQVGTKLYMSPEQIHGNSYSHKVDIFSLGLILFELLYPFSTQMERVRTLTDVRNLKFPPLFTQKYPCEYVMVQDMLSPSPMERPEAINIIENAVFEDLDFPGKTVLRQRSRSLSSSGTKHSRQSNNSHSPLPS

SMILES	IC50 [µM]	pIC50
COc1ccc(S(=O)(=O)Nc2cccc(-c3cn(C)c4ncnc(N)c34)c2F)cc1 [cmpd 14, N-[3-(4-Amino-7-methyl-7H-pyrrolo[2,3-d]pyrimidin-5-yl)-2-fluoro-phenyl]-4-methoxy-benzenesulfonamide]	0.0501 to 0.158	–
Cn1cc(-c2cccc(NS(=O)(=O)c3cnc(Cl)c(Br)c3)c2F)c2c(N)ncnc21 [cmpd 33, 5-Bromo-6-chloro-pyridine-3-sulfonic acid [3-(4-amino-7-methyl-7H-pyrrolo[2,3-d]pyrimidin-5-yl)-2-fluoro-phenyl]-amide]	0.0158 to 0.0501	–
COc1ccc(S(=O)(=O)Nc2cccc(-c3cn(C(C)C)c4ncnc(N)c34)c2F)cc1Cl [cmpd 2, N-[3-(4-Amino-7-isopropyl-7H-pyrrolo[2,3-d]pyrimidin-5-yl)-2-fluoro-phenyl]-3-chloro-4-methoxy-benzenesulfonamide]	–	AA (7.8 ≤ pIC50)
Cn1cc(-c2cccc(NS(=O)(=O)c3cc(F)ccc3F)c2F)c2c(N)ncnc21 [cmpd 21, N-[3-(4-Amino-7-methyl-7H-pyrrolo[2,3-d]pyrimidin-5-yl)-2-fluoro-phenyl]-2,5-difluoro-benzenesulfonamide]	–	C (pIC50 < 6.8)
COc1c(C)cc(S(=O)(=O)Nc2cccc(-c3cn(C)c4ncnc(N)c34)c2F)cc1C [cmpd 29, N-[3-(4-Amino-7-methyl-7H-pyrrolo[2,3-d]pyrimidin-5-yl)-2-fluoro-phenyl]-4-methoxy-3,5-dimethyl-benzenesulfonamide]	0.0158 to 0.0501	–
Cn1cc(-c2cccc(NS(=O)(=O)c3cc(F)c(F)c(F)c3)c2F)c2c(N)ncnc21 [cmpd 32, N-[3-(4-Amino-7-methyl-7H-pyrrolo[2,3-d]pyrimidin-5-yl)-2-fluoro-phenyl]-3,4,5-trifluoro-benzenesulfonamide]	0.0158 to 0.0501	–
Cc1cc(S(=O)(=O)Nc2cccc(-c3cn(C)c4ncnc(N)c34)c2F)ccc1OC(C)C [cmpd 30, N-[3-(4-Amino-7-methyl-7H-pyrrolo[2,3-d]pyrimidin-5-yl)-2-fluoro-phenyl]-4-isopropoxy-3-methyl-benzenesulfonamide]	–	C (pIC50 < 6.8)
CCOc1ccc(S(=O)(=O)Nc2cccc(-c3cn(C)c4ncnc(N)c34)c2F)cc1C [cmpd 28, N-[3-(4-Amino-7-methyl-7H-pyrrolo[2,3-d]pyrimidin-5-yl)-2-fluoro-phenyl]-4-ethoxy-3-methyl-benzenesulfonamide]	0.0158 to 0.0501	–
COc1cc(F)c(S(=O)(=O)Nc2cccc(-c3cn(C)c4ncnc(N)c34)c2F)cc1Cl [cmpd 24, N-[3-(4-Amino-7-methyl-7H-pyrrolo[2,3-d]pyrimidin-5-yl)-2-fluoro-phenyl]-5-chloro-2-fluoro-4-methoxy-benzenesulfonamide]	–	AA (7.8 ≤ pIC50)
COc1ccc(S(=O)(=O)Nc2cccc(-c3nn(C)c4ncnc(N)c34)c2F)cc1C [cmpd 34, N-[3-(4-Amino-1-methyl-1H-pyrazolo[3,4-d]pyrimidin-3-yl)-2-fluoro-phenyl]-4-methoxy-3-methyl-benzenesulfonamide]	0.0158 to 0.0501	–
Cn1cc(-c2cccc(NS(=O)(=O)c3ccc([N+](=O)[O-])cc3)c2F)c2c(N)ncnc21 [cmpd 19, N-[3-(4-Amino-7-methyl-7H-pyrrolo[2,3-d]pyrimidin-5-yl)-2-fluoro-phenyl]-4-nitro-benzenesulfonamide]	0.0158 to 0.0501	–
Cn1cc(-c2cccc(NS(=O)(=O)c3ccc(Br)cc3F)c2F)c2c(N)ncnc21 [cmpd 22, N-[3-(4-Amino-7-methyl-7H-pyrrolo[2,3-d]pyrimidin-5-yl)-2-fluoro-phenyl]-4-bromo-2-fluoro-benzenesulfonamide]	0.0158 to 0.0501	–
Cn1cc(-c2cccc(NS(=O)(=O)c3cccc(Cl)c3)c2F)c2c(N)ncnc21 [cmpd 13, N-[3-(4-Amino-7-methyl-7H-pyrrolo[2,3-d]pyrimidin-5-yl)-2-fluoro-phenyl]-3-chloro-benzenesulfonamide]	–	AA (7.8 ≤ pIC50)
COc1ccc(S(=O)(=O)Nc2cccc(-c3cn(C4CCN(C)CC4)c4ncnc(N)c34)c2F)cc1Cl [cmpd 4, N-{3-[4-Amino-7-(1-methyl-piperidin-4-yl)-7H-pyrrolo[2,3-d]pyrimidin-5-yl]-2-fluoro-phenyl}-3-chloro-4-methoxy-benzenesulfonamide]	–	AA (7.8 ≤ pIC50)
Cn1cc(-c2cccc(NS(=O)(=O)c3ccc(C(F)(F)F)cc3)c2F)c2c(N)ncnc21 [cmpd 15, N-[3-(4-Amino-7-methyl-7H-pyrrolo[2,3-d]pyrimidin-5-yl)-2-fluoro-phenyl]-4-trifluoromethyl-benzenesulfonamide]	0.0501 to 0.158	–
COc1ccc(S(=O)(=O)Nc2cccc(-c3cn(C4CCN(C(C)C)CC4)c4ncnc(N)c34)c2F)cc1Cl [cmpd 6, N-{3-[4-Amino-7-(1-isopropyl-piperidin-4-yl)-7H-pyrrolo[2,3-d]pyrimidin-5-yl]-2-fluoro-phenyl}-3-chloro-4-methoxy-benzenesulfonamide]	–	AA (7.8 ≤ pIC50)

Results, then the molecule that gave them:

IC50 [µM]	pIC50	SMILES
0.0158 to 0.0501	–	COc1ccc(S(=O)(=O)Nc2cccc(-c3cn(C4CCNCC4)c4ncnc(N)c34)c2F)cc1C [cmpd 64, N-[3-(4-Amino-7-piperidin-4-yl-7H-pyrrolo[2,3-d]pyrimidin-5-yl)-2-fluoro-phenyl]-4-methoxy-3-methyl-benzenesulfonamide]
0.0501 to 0.158	–	COc1cc(F)c(S(=O)(=O)Nc2cccc(-c3cn(C(C)C)c4ncnc(N)c34)c2F)cc1Cl [cmpd 74, N-[3-(4-Amino-7-isopropyl-7H-pyrrolo[2,3-d]pyrimidin-5-yl)-2-fluoro-phenyl]-5-chloro-2-fluoro-4-methoxy-benzenesulfonamide]
0.0158 to 0.0501	–	COc1ccc(S(=O)(=O)Nc2cccc(-c3cn(C4CCOCC4)c4ncnc(N)c34)c2F)cc1C [cmpd 36, N-{3-[4-Amino-7-(tetrahydro-pyran-4-yl)-7H-pyrrolo[2,3-d]pyrimidin-5-yl]-2-fluoro-phenyl}-4-methoxy-3-methyl-benzenesulfonamide]
–	AA (7.8 ≤ pIC50)	Cn1cc(-c2cccc(NS(=O)(=O)c3cc(F)c(Br)cc3F)c2F)c2c(N)ncnc21 [cmpd 46, N-[3-(4-Amino-7-methyl-7H-pyrrolo[2,3-d]pyrimidin-5-yl)-2-fluoro-phenyl]-4-bromo-2,5-difluoro-benzenesulfonamide]
0.0158 to 0.0501	–	Cn1cc(-c2cccc(NS(=O)(=O)c3ccc(Cl)s3)c2F)c2c(N)ncnc21 [cmpd 47, 5-Chloro-thiophene-2-sulfonic acid [3-(4-amino-7-methyl-7H-pyrrolo[2,3-d]pyrimidin-5-yl)-2-fluoro-phenyl]-amide]
–	AA (7.8 ≤ pIC50)	Cc1cc(S(=O)(=O)Nc2cccc(-c3cn(C)c4ncnc(N)c34)c2F)ccc1Br [cmpd 52, N-[3-(4-Amino-7-methyl-7H-pyrrolo[2,3-d]pyrimidin-5-yl)-2-fluoro-phenyl]-4-bromo-3-methyl-benzenesulfonamide]
0.0158 to 0.0501	–	Cn1cc(-c2cccc(NS(=O)(=O)c3ccc(Br)s3)c2F)c2c(N)ncnc21 [cmpd 48, 5-Bromo-thiophene-2-sulfonic acid [3-(4-amino-7-methyl-7H-pyrrolo[2,3-d]pyrimidin-5-yl)-2-fluoro-phenyl]-amide]
0.0158 to 0.0501	–	Cn1cc(-c2cccc(NS(=O)(=O)c3ccc(Br)c(C(F)(F)F)c3)c2F)c2c(N)ncnc21 [cmpd 51, N-[3-(4-Amino-7-methyl-7H-pyrrolo[2,3-d]pyrimidin-5-yl)-2-fluoro-phenyl]-4-bromo-3-trifluoromethyl-benzenesulfonamide]
–	AA (7.8 ≤ pIC50)	COc1cc(F)c(S(=O)(=O)Nc2cccc(-c3cn(C)c4ncnc(N)c34)c2F)cc1C [cmpd 44, N-[3-(4-Amino-7-methyl-7H-pyrrolo[2,3-d]pyrimidin-5-yl)-2-fluoro-phenyl]-2-fluoro-4-methoxy-5-methyl-benzenesulfonamide]
0.0158 to 0.0501	–	COc1ccc(S(=O)(=O)Nc2cccc(-c3cn(C4CCOCC4)c4ncnc(N)c34)c2F)cc1Cl [cmpd 37, N-{3-[4-Amino-7-(tetrahydro-pyran-4-yl)-7H-pyrrolo[2,3-d]pyrimidin-5-yl]-2-fluoro-phenyl}-3-chloro-4-methoxy-benzenesulfonamide]
–	AA (7.8 ≤ pIC50)	COc1ccc(S(=O)(=O)Nc2cccc(-c3cn(C)c4ncnc(N)c34)c2F)cc1Br [cmpd 87, N-[3-(4-Amino-7-methyl-7H-pyrrolo[2,3-d]pyrimidin-5-yl)-2-fluoro-phenyl]-3-bromo-4-methoxy-benzenesulfonamide]
0.0501 to 0.158	–	Cn1cc(-c2cccc(NS(=O)(=O)c3cc(C(F)(F)F)cc(C(F)(F)F)c3)c2F)c2c(N)ncnc21 [cmpd 49, N-[3-(4-Amino-7-methyl-7H-pyrrolo[2,3-d]pyrimidin-5-yl)-2-fluoro-phenyl]-3,5-bis-trifluoromethyl-benzenesulfonamide]
0.0158 to 0.0501	–	Cn1cc(-c2cccc(NS(=O)(=O)c3ccc(Cl)cc3F)c2F)c2c(N)ncnc21 [cmpd 85, N-[3-(4-Amino-7-methyl-7H-pyrrolo[2,3-d]pyrimidin-5-yl)-2-fluoro-phenyl]-4-chloro-2-fluoro-benzenesulfonamide]
